Patent US12492174B2, “Morpholine-3-carboxamide derivatives as prostaglandin E2 receptor 4 (EP4) agonists for the treatment of gastrointestinal and pulmonary diseases” (NXERA PHARMA UK LIMITED, priority 2022, dated 2025)

Key:
human EP4 = target: T1, human EP4 (Homo sapiens, UniProt P35408); test: cAMP Gs functional assay (HTRF cAMP dynamic-2); assay type: cell-based; conditions: for Emax: HEK293, HEK293 cells transfected with EP4 Bacmam virus; for EC50: 30 mins at 37° C., −Log of the molarity (M), read-out: cAMP human EP4 pEC50 (converted)
T1 construct: expressed in transfected cells; host or cells: HEK293 cells transduced with EP4 BacMam virus
T1 sequence (P35408 whole entry): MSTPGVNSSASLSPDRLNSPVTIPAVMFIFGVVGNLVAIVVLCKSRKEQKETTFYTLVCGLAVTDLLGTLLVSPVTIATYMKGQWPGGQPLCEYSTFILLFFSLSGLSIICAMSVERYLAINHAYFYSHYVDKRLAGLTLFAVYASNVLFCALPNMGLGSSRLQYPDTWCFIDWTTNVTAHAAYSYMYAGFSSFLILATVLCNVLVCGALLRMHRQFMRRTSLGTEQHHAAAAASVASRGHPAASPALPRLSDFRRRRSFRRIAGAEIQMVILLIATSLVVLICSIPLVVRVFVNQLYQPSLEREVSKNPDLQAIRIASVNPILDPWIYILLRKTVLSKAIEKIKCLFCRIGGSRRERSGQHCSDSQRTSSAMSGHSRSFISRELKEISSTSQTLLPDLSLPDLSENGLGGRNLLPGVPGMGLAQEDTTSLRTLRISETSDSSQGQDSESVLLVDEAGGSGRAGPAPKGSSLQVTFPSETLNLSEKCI
Protocol: Cloning, Baculovirus generation, large scale infection of HEK293 cells and membrane preparation: Human prostaglandin E2 receptor 4 (EP4) was cloned into pBacMam expression vector (GeneScript, UK). Transposition of EP4 DNA was performed using Invitrogen's Bac-to-Bac Baculovirus Expression Systems. P0 baculovirus was generated by transfecting SF9 Cells with bacmid DNA using Cellfectin II transfection reagent (ThermoFisher Scientific, UK). Following P0 generation P1 virus was then generated ready for large scale infection and membrane preparation. HEK293 cells were grown in DMEM (ThermoFisher Scientific, UK), supplemented with 10% heat inactivated fetal bovine serum (FBS). Cells were infected at a seeding density of 3.5 million cells/mL in 500 cm^3 flasks at 5% v/v EP4 Bacman. Expression was carried out over a 36 hr period at 37° C. with 5% CO2. The cells were removed using PBS and a cell scrapper. The cell culture was centrifuged at 2500 RPM for 10 mins at 4° C. The supernatant was then poured off and the pellet stored at −80° C. The pellet was defrosted and re-suspended in 15 mL of homogenising buffer (20 mM HEPES, 10 mM EDTA, pH 7.4). Then homogenised in mechanical homogeniser (VMR) for 10 seconds. The membrane was centrifuged in centrifuge tubes at 40,000 g for 15 mins at 4° C. The supernatant was poured away and re-suspended in 15 mL of homogenising buffer. Homogenised for 20 seconds. The membrane was centrifuged at 40,000 g for 45 mins at 4° C. The membrane was re-suspended in 3 mL of storage buffer (20 mM HEPES, 0.1 mM EDTA, pH 7.4) mixing well. The resulting membranes were then stored at −80° C.
cAMP Gs Functional Assay: cAMP production following EP4 receptor activation was determined using the Homogeneous Time-Resolved Fluorescence (HTRF) cAMP dynamic-2 assay (Cisbio, France). HEK293 cells were transfected using a 0.5% EP4 Bacmam virus for 36 hours, before dissociating the cells, and freezing at −150° C.
On the day of testing, increasing concentration of test compounds, alongside positive controls (10 uM PGE2 (Tocris, Abingdon, UK)) and negative control (DMSO (Sigma-Aldrich, UK) were added to a ProxiPlate-384 Plus, White 384-shallow well Mircoplate, (PerkinElmer, USA) using the ECHO dispense.
Cells were defrosted in a water bath and resuspended in DMEM supplemented with 10% FBS before centrifuging at 1200 RPM for 5 mins to form a pellet. The pellet was resuspended in assay buffer (DMEM+0.5 mM IBMX (Tocris, Abingdon, UK)) to 0.5×10^6 cells/mL. Cell suspension, for a final assay concentration of 5000 cell/well was added using the multidrop to the pre-dispensed assay plate. The plate was then incubated at 37° C. for 30 mins, with 5% CO2. The cAMP production was determined as manufacturer's instructions, before plates were read on a PheraStar fluorescence plate reader (BMG LabTech, Germany).
The pEC50 values (−Log of the molarity (M) in mol/liter) were calculated from the mid-point of the curve using dotmatics as shown in Table 3.

[1] = Unidirectional Caco-2 cell permeability assay; assay type: in vitro ADME; conditions: human, n=2, apical pH 6.5, basolateral pH 7.4, 1 hour, 37° C.
Protocol: Caco-2 cells (ECACC) were seeded onto 24-well Transwell plates at 2×10^5 cells per well and used in confluent monolayers after a 21 day culture at 37° C. under 5% CO2. Test compounds were incubated at 10 μM, 0.2% DMSO final, n=2 in assay buffer (Hanks balanced salt solution supplemented with 25 mM HEPES, adjusted to pH 6.5). Hanks balanced salt solution supplemented with 25 mM HEPES, adjusted to pH 7.4 (0.2% DMSO final) was used for the basolateral chamber (as receiver).
Incubations were performed at 37° C., with samples removed from both donor and acceptor chambers at T=0 and 1 hour and compound analysed by mass spectrometry (LC-MS/MS) including an analytical internal standard (0.5 μM carbamazepine).
Apparent permeability (Papp) values are shown in Table 4 and were determined from the relationship:
Where V is the volume of each Transwell compartment (apical 125 μL, basolateral 600 μL), and concentrations are the relative MS responses for compound (normalized to internal standard) in the donor chamber before incubation and acceptor chamber at the end of the incubation Area=area of cells exposed for drug transfer (0.33 cm^2).
Lucifer Yellow (LY) was added to the apical buffer in all wells to assess viability of the cell layer. As LY cannot freely permeate lipophilic barriers, a high degree of LY transport indicates poor integrity of the cell layer and wells with a LY Papp>10×10^−6 cm/s were rejected.
Compound recovery from the wells was determined from MS responses (normalized to internal standard) in donor and acceptor chambers at the end of incubation compared to response in the donor chamber pre-incubation.

[2] = HEK293 cells transfected with EP4 Bacmam virus

Emax (human EP4; positive control 10 uM PGE2)	Papp A→B at 1 h, 10 μM [1]	EC50 (human EP4; [2])	cAMP human EP4 Emax (human EP4; HEK293 cells transfected with EP4 Bacmam virus, positive control 10 uM PGE2)	Structure (SMILES)
97%	–	–	–	C[C@H](NC(=O)[C@H]1COCCN1Cc1cccc(-c2ccc(S(N)(=O)=O)cc2O)c1)c1ccc(C(=O)O)cc1 [Example 29, 4-((S)-1-((R)-4-((2′-hydroxy-4′-sulfamoyl-[1,1′-biphenyl]-3-yl)methyl)morpholine-3-carboxamido)ethyl)benzoic acid]
97%	0.24 ×10⁻⁶ cm/s	3.98e-08 M	–	Cc1cc(C(N)=O)ccc1-c1cccc(CN2CCOC[C@@H]2C(=O)NCc2ccc(C(=O)O)nc2)c1 [Example 9, 5-[[[(3R)-4-[[3-(4-carbamoyl-2-methyl-phenyl)phenyl]methyl]morpholine-3-carbonyl]amino]methyl]pyridine-2-carboxylic acid]
89%	–	1e-06 M	–	Cc1cc(C(N)=O)ccc1-c1cccc(CN2CCOC[C@@H]2C(=O)N[C@@H](C)c2ccc(C(=O)O)cc2)n1 [Example 2, 4-[(1S)-1-[[(3R)-4-[[6-(4-carbamoyl-2-methyl-phenyl)-2-pyridyl]methyl]-morpholine-3-carbonyl]amino]ethyl]benzoic acid]
–	–	2.51e-07 M	95%	Cc1cc(C(N)=O)ccc1-c1cccc(CN2CCOC[C@@H]2C(=O)NC(C)c2cc(F)c(C(=O)O)c(F)c2)c1 (single isomer, unassigned) [Example 27]
100%	0.59 ×10⁻⁶ cm/s	7.94e-10 M	–	Cc1cc(S(N)(=O)=O)ccc1-c1cccc(CN2CCOC[C@@H]2C(=O)N[C@@H](C)c2ccc(C(=O)O)cc2)c1 [Example 5, 4-((S)-1-((R)-4-((2′-methyl-4′-sulfamoyl-[1,1′-biphenyl]-3-yl)methyl)morpholine-3-carboxamido)ethyl)benzoic acid]
98%	0.66 ×10⁻⁶ cm/s	1.26e-10 M	–	Cc1cc(C(N)=O)ccc1-c1cccc(CN2CCOC[C@@H]2C(=O)NC2(c3ccc(C(=O)O)cc3)CC2)c1 [Example 31, (R)-4-(1-(4-((4′-carbamoyl-2′-methyl-[1,1′-biphenyl]-3-yl)methyl)morpholine-3-carboxamido)cyclopropyl)benzoic acid]
97%	< 0.1 ×10⁻⁶ cm/s	6.31e-09 M	–	Cc1cc(S(N)(=O)=O)ccc1-c1cccc(CN2CCOC[C@@H]2C(=O)N[C@@H](C)c2ccc(C(=O)O)c(O)c2)c1 [Example 25, 2-hydroxy-4-((S)-1-((R)-4-((2′-methyl-4′-sulfamoyl-[1,1′-biphenyl]-3-yl)methyl)morpholine-3-carboxamido)ethyl)benzoic acid]
93%	–	1.58e-07 M	–	Cc1cc(C(N)=O)ccc1-c1cc(CN2CCOC[C@@H]2C(=O)N[C@@H](C)c2ccc(C(=O)O)cc2)c[n+]([O-])c1 [Example 30, 3-(4-carbamoyl-2-methylphenyl)-5-(((R)-3-(((S)-1-(4-carboxyphenyl)ethyl)carbamoyl)morpholino)methyl)pyridine 1-oxide]
97%	0.39 ×10⁻⁶ cm/s	3.98e-10 M	–	NC(=O)c1ccc(-c2cc(CN3CCOC[C@@H]3C(=O)NC3(c4ccc(C(=O)O)cc4)CC3)ccc2O)cc1 [Example 34, (R)-4-(1-(4-((4′-carbamoyl-6-hydroxy-[1,1′-biphenyl]-3-yl)methyl)morpholine-3-carboxamido)cyclopropyl)benzoic acid]
98%	< 0.1 ×10⁻⁶ cm/s	2e-10 M	–	Cc1cc(C(N)=O)ccc1-c1cc(O)cc(CN2CCOC[C@@H]2C(=O)N[C@@H](C)c2ccc(C(=O)O)cc2)c1 [Example 10, 4-((S)-1-((R)-4-((4′-carbamoyl-5-hydroxy-2′-methyl-[1,1′-biphenyl]-3-yl)methyl)morpholine-3-carboxamido)ethyl)benzoic acid]
98%	< 0.1 ×10⁻⁶ cm/s	3.98e-10 M	–	Cc1cc(S(N)(=O)=O)ccc1-c1cc(O)cc(CN2CCOC[C@@H]2C(=O)N[C@@H](C)c2ccc(C(=O)O)cc2)c1 [Example 11, 4-[(1S)-1-[[(3R)-4-[[3-hydroxy-5-(2-methyl-4-sulfamoyl-phenyl)phenyl]methyl]morpholine-3-carbonyl]amino]ethyl]benzoic acid]
97%	–	–	–	Cc1cc(C(N)=O)ccc1-c1cccc(CN2CCOC[C@@H]2C(=O)NC(C)c2cc(F)c(C(=O)O)c(F)c2)c1 (single isomer, unassigned) [Example 26]
–	< 0.1 ×10⁻⁶ cm/s	> 1e-07 M	–	Cc1cc(C(N)=O)ccc1-c1cc(O)cc(CN2CCOC[C@H]2C(=O)N[C@@H](C)c2ccc(C(=O)O)cc2)c1 [Example 37, 4-((S)-1-((S)-4-((4′-carbamoyl-5-hydroxy-2′-methyl-[1,1′-biphenyl]-3-yl)methyl)morpholine-3-carboxamido)ethyl)benzoic acid]
99%	< 0.1 ×10⁻⁶ cm/s	1e-08 M	–	Cc1cc(C(N)=O)ccc1-c1cccc(CN2CCOC[C@@H]2C(=O)N[C@@H](C)c2ccc(C(=O)O)c(O)c2)c1 [Example 19, 4-((S)-1-((R)-4-((4′-carbamoyl-2′-methyl-[1,1′-biphenyl]-3-yl)methyl)morpholine-3-carboxamido)ethyl)-2-hydroxybenzoic acid]
97%	< 0.1 ×10⁻⁶ cm/s	1.26e-07 M	–	Cc1cc(S(N)(=O)=O)ccc1-c1cc(CN2CCOC[C@@H]2C(=O)N[C@@H](C)c2ccc(C(=O)O)cc2)ccn1 [Example 16, 4-[(1S)-1-[[(3R)-4-[[2-(2-methyl-4-sulfamoyl-phenyl)-4-pyridyl]methyl]morpholine-3-carbonyl]amino]ethyl]benzoic acid]
99%	0.66 ×10⁻⁶ cm/s	1.58e-09 M	–	Cc1cc(C(N)=O)ccc1-c1cccc(CN2CCOC[C@@H]2C(=O)N[C@@H](C)c2ccc(C(=O)O)cc2)c1 [Example 7, 4-((S)-1-((R)-4-((4′-carbamoyl-2′-methyl-[1,1′-biphenyl]-3-yl)methyl)morpholine-3-carboxamido)ethyl)benzoic acid]
99%	< 0.1 ×10⁻⁶ cm/s	1.58e-08 M	–	Cc1cc(S(N)(=O)=O)ccc1-c1cncc(CN2CCOC[C@@H]2C(=O)N[C@@H](C)c2ccc(C(=O)O)c(O)c2)c1 [Example 21, 2-hydroxy-4-((S)-1-((R)-4-((5-(2-methyl-4-sulfamoylphenyl)pyridin-3-yl)methyl)morpholine-3-carboxamido)ethyl)benzoic acid]
101%	–	5.01e-10 M	–	Cc1cc(OS(N)(=O)=O)ccc1-c1cccc(CN2CCOC[C@@H]2C(=O)N[C@@H](C)c2ccc(C(=O)O)cc2)c1 [Example 20, 4-((S)-1-((R)-4-((2′-methyl-4′-(sulfamoyloxy)-[1,1′-biphenyl]-3-yl)methyl)morpholine-3-carboxamido)ethyl)benzoic acid]
